“Also recorded” adds a separate entry of the source.
Experiments:
[1] = test system: hyper-aggregatory responses to inducers of the prostaglandin-dependent pathway; settings: hyperlipidemic patients; Vargaftig et al. (1981); cited from earlier work
[2] = test system: human platelets (collagen-induced aggregation); settings: literature; cited from earlier work
[3] = test system: human platelets (collagen-induced serotonin secretion); settings: Witiak et al., J. Med Chem. 25: 90 (1982); cited from earlier work
[4] = test system: human platelets (ADP-induced aggregation); test: ADP-induced human platelet aggregation (turbidometric, secondary aggregation); format: cell-based; settings: for rank order of potency, aggregation and serotonin secretory responses to ADP and AA: aggregation and serotonin secretion together; for IC50: Homo sapiens, Platelet, inhibitor 1 min before ADP (1-5 uM), secondary aggregation only, mean ± S.E.M., n = 3-9 donors; for fold more potent than clofibric acid as inhibitor of ADP-induced platelet activation: versus clofibric acid 1
Description: (§1) The antiaggregatory action of the compounds of the present invention was determined using the following procedure: ADP and AA were obtained from Sigma Chemical Co., (St. Louis, MO). [^14 C]-Serotonin (57 mCi/mmol) and [^3 H]-AA (210 Ci/mmol) were supplied by Amersham (Arlington Heights, IL). U46619 (15S-hydroxy-11α,9α-epoxymethano-prosta-5z,13E-dienoic acid) was purchased from Upjohn Diagnostics (Kalamazoo, MI). Blood was collected from normal human volunteers who reported to be free of medication for at least 10 days prior to blood collection. Washed platelets were prepared and suspended in a modified Tyrode's solution, pH 7.4 as described in Navran, S. S., et al., Thromb. […] The platelet count was adjusted to 3×10^8 /ml for aggregation, secretion and biochemical studies.
(§2) Inhibitors were added one minute prior to induction of platelet activation. Secretion of the contests of platelet dense granules was measured by monitoring the release of radioactivity from platelets prelabeled with [^14 C]-serotonin. […] To study the release of AA from platelet phospholipids, washed platelets were incubated with [^3 H]-AA (3.6 mCi/10^9 platelets) for two hours at room temperature prior to the final centrifugation and resuspension of the washing procedure. Released [^3 H]-AA was quantified from supernatants of stimulated platelet samples in a manner identical to the determination of serotonin secretion.

[5] = test system: human platelets (arachidonic acid-induced aggregation); test: Arachidonic acid-induced human platelet aggregation (turbidometric); format: cell-based; settings: for IC50: Homo sapiens, Platelet, inhibitor 1 min before AA (0.2-1 mM), mean ± S.E.M., n = 3-9 donors; for fold more potent inhibitor of AA-induced aggregation: implied versus clofibric acid; for antiaggregatory potency relative to clofibric acid (in words): prostaglandin-dependent pathway of platelet activation
Description: as §1, §2

[6] = test system: human platelets (U46619-induced serotonin secretion); test: U46619-induced [14C]-serotonin secretion (+ ASA); format: cell-based; settings: for IC50: Homo sapiens, Platelet, inhibitor 1 min before U46619 (0.3 uM), aspirin 1 mM added, mean ± S.E.M., n = 3-9 donors; for fold more potent than clofibric acid as inhibitor of U46619-evoked serotonin secretion: versus clofibric acid 1
Description: as §1, §2

[7] = test system: human platelets (U46619, thromboxane A2 agonist-induced aggregation); test: U46619-induced human platelet aggregation (turbidometric, + ASA); format: cell-based; settings: for IC50: Homo sapiens, Platelet, inhibitor 1 min before U46619 (0.3 uM), aspirin 1 mM added, mean ± S.E.M., n = 3-9 donors
Description: as §1, §2

[8] = test system: human platelets (arachidonic acid-induced serotonin secretion); test: Arachidonic acid-induced [14C]-serotonin secretion; format: cell-based; settings: for IC50: Homo sapiens, Platelet, inhibitor 1 min before AA (0.2-1 mM), mean ± S.E.M., n = 3-9 donors
Description: as §1, §2

[9] = test system: human platelets (thrombin-induced [3H]-AA release); test: Thrombin-induced [3H]-arachidonic acid release; format: cell-based; settings: for IC50: Homo sapiens, Platelet, inhibitor 1 min before thrombin (0.5 U/ml), terminated at 4 min, 3-5 donors; for inhibition of AA release (in words): thrombin-induced AA release / release from platelet membrane phospholipids
Description: (§3) The antiaggregatory action of the compounds of the present invention was determined using the following procedure: ADP and AA were obtained from Sigma Chemical Co., (St. Louis, MO). [^14 C]-Serotonin (57 mCi/mmol) and [^3 H]-AA (210 Ci/mmol) were supplied by Amersham (Arlington Heights, IL). U46619 (15S-hydroxy-11α,9α-epoxymethano-prosta-5z,13E-dienoic acid) was purchased from Upjohn Diagnostics (Kalamazoo, MI). Blood was collected from normal human volunteers who reported to be free of medication for at least 10 days prior to blood collection. Washed platelets were prepared and suspended in a modified Tyrode's solution, pH 7.4 as described in Navran, S. S., et al., Thromb. Res., 33: 449-510 (1984). The platelet count was adjusted to 3×10^8 /ml for aggregation, secretion and biochemical studies.
Platelet aggregation studies were performed according to the turbidometric method of Born, as described in Nature, 194: 927-929 (1962), in a Payton Model 600 dual channel aggregometer interfaced to an Apple microcomputer for acquistion, quantitation, presentation, and management of platelet aggregation data, as described in Huzoor-Akbar, et al., 32 Thromb. Res., 335-341 (1983). Inhibitors were added one minute prior to induction of platelet activation. Secretion of the contests of platelet dense granules was measured by monitoring the release of radioactivity from platelets prelabeled with [^14 C]-serotonin. Malondialdehyde formation induced by AA was determined as described in Huzoor-Akar et al., Biochem Pharmacol., 30: 2013-2020 (1981). To study the release of AA from platelet phospholipids, washed platelets were incubated with [^3 H]-AA (3.6 mCi/10^9 platelets) for two hours at room temperature prior to the final centrifugation and resuspension of the washing procedure. Released [^3 H]-AA was quantified from supernatants of stimulated platelet samples in a manner identical to the determination of serotonin secretion.
The reactions were terminated at 4 minutes and [^3 H]-AA was sampled from platelet supernatants and analyzed as described herein. Data are averages ± S.E.M. from 3-5 donors.

[10] = test system: human platelets (ADP-induced serotonin secretion); test: ADP-induced [14C]-serotonin secretion; format: cell-based; settings: Platelet, inhibitor 1 min before ADP (1-5 uM), mean ± S.E.M., n = 3-9 donors
Description: as §1
Inhibitors were added one minute prior to induction of platelet activation. Secretion of the contests of platelet dense granules was measured by monitoring the release of radioactivity from platelets prelabeled with [^14 C]-serotonin. […] Released [^3 H]-AA was quantified from supernatants of stimulated platelet samples in a manner identical to the determination of serotonin secretion.

[11] = test system: human platelets (AA-induced MDA formation); test: AA-induced malondialdehyde (MDA) formation; format: cell-based; settings: Platelet, mean+S.E., N=3-5
Description: as §3, with “The platelet count was adjusted to 3×10^8 /ml for aggregation, secretion and biochemical studies.” left out
Platelet aggregation studies were performed according to the turbidometric method of Born, as described in Nature, 194: 927-929 (1962), in a Payton Model 600 dual channel aggregometer interfaced to an Apple microcomputer for acquistion, quantitation, presentation, and management of platelet aggregation data, as described in Huzoor-Akbar, et al., 32 Thromb. […] Secretion of the contests of platelet dense granules was measured by monitoring the release of radioactivity from platelets prelabeled with [^14 C]-serotonin. Malondialdehyde formation induced by AA was determined as described in Huzoor-Akar et al., Biochem Pharmacol., 30: 2013-2020 (1981). […]

SMILES | inhibition of (secondary wave of) ADP-induced aggregation (in words) [4] | rank order of potency, aggregation and serotonin secretory responses to ADP and AA [4] | IC50 [4] [µM] | fold more potent than clofibric acid as inhibitor of ADP-induced platelet activation [4] | inhibition of AA-induced aggregation (in words) [5] | rank order of inhibitory potency, AA-induced aggregation [5] | IC50 [5] [µM] | fold more potent inhibitor of AA-induced aggregation [5] | antiaggregatory potency relative to clofibric acid (in words) [5] | rank order of inhibitory potency against U46619-induced serotonin secretion [6] | IC50 [6] [µM] | fold more potent than clofibric acid as inhibitor of U46619-evoked serotonin secretion [6] | inhibition of U46619-induced aggregation/responses (in words) [7] | IC50 [7] [µM] | rank order of inhibitory potency, AA-induced serotonin secretion [8] | IC50 [8] [µM] | rank order of inhibitory potency, thrombin-induced AA release [9] | IC50 [9] [µM] | inhibition of AA release (in words) [9] | IC50 [10] [µM] | further results
CCOC(=O)C(C)(C)Oc1ccc(Cl)cc1 [clofibrate] |  |  |  |  |  |  |  |  |  |  |  |  |  |  |  |  |  |  |  |  | effect of therapy on hyper-aggregatory responses (in words) [1]: reverses the hyper-aggregatory responses to inducers of the prostaglandin-dependent pathway
O=C1OC(c2ccc(Cl)cc2)C(O)=C1O (stereo not drawn) [compound 2, 2-hydroxytetronic acid aci-reductone] |  |  |  |  |  |  |  |  |  |  |  |  |  |  |  |  |  |  |  |  | inhibition of collagen-induced human platelet aggregation/activation (in words) [2]: inhibit collagen-inducedhuman platelet aggregation; inhibition of collagen-induced secretion of [14C]-serotonin (in words) [3]: in a concentration-dependent manner at equivalent doses
O=c1oc2ccc(Cl)cc2c(O)c1O [compound IX, 6-chloro-3,4-dihydroxy-2H-1-benzopyran-2-one] | potent inhibitor of thrombin-induced AA release and ADP- or AA-induced aggregation; also recorded: concentration-dependent inhibition | benzopyranone analogue>2,3-dihydrobenzofuran analog>clofibric acid | 363 ± 159 | about 2 fold | potent inhibitor of thrombin-induced AA release and ADP- or AA-induced aggregation; also recorded: concentration-dependent inhibition | IX>X>1 | 739 ± 86 | approximately 4 fold | more potent antiaggregatory agents than clofibric acid | dihydrobenzofuran>benzopyranone>clofibric acid | 2380 ± 394 | about 2 fold | inhibits U46619-induced responses in human platelets; also recorded: concentration-dependent inhibitors of U46619-induced aggregation | 1500 ± 160 | IX>X>1 | 814 ± 90 | IX>>X=1; also recorded: IX>1=X | 432 | blocks AA release from platelet membrane phospholipids; also recorded: potent inhibitor of thrombin-induced AA release | 466 ± 90 | inhibition of AA metabolism (in words) ([5]; inferred from AA-mediated versus U46619 responses): acts as an inhibitor of AA metabolism
O=C(O)C1Cc2cc(Cl)ccc2O1 (stereo not drawn) [compound X, 5-chloro-2,3-dihydrobenzofuran-2-carboxylic acid] | concentration-dependent inhibition | benzopyranone analogue>2,3-dihydrobenzofuran analog>clofibric acid | 533 ± 71 | about 2 fold | concentration-dependent inhibition | IX>X>1 | 851 ± 85 | approximately 4 fold | more potent antiaggregatory agents than clofibric acid | dihydrobenzofuran>benzopyranone>clofibric acid | 1440 ± 239 | about 2 fold | antagonizes the proaggregatory actions of the thromboxane A2 agonist U46619; also recorded: concentration-dependent inhibitors of U46619-induced aggregation | 1480 ± 277 | IX>X>1 | 1010 ± 142 | IX>>X=1; also recorded: IX>1=X | 3870 | blocks the release and subsequent metabolism of AA | 419 ± 90 | IC50 [11]: 908 ± 137 µM
